≈ marks a conversion by molar mass, not a printed value.
Tests used:
CV-1 cells = experiment: Drug cytotoxicity in the antiviral assay; type: cell-based, African green monkey; conditions: anti-HSV-1 assay; ID50 not defined in the text, TI = ID50/ED50
Excerpt: (§1) The antiviral assay for herpes simplex virus type 1 (HSV-1) is a plaque inhibition assay. CV-1 cells (a fibroblast-like cell culture derived from primary African green monkey cells) are infected with the Kos strain of HSV-1 . Cytopathic effects (CPE) of the virus are prevented from rapid spread by a methylcellulose medium. Distinct areas of infected cells or plaques are distinguished from a surrounding area of viable CV-1 cells by staining the culture with neutral red which is a stain taken up by living cells. The viral dose can be quantitated by counting the number of plaques. Compounds with antiviral activity can be identified by comparing the plaque number in the drug treated cells to the HSV-1 viral control.
Confluent cultures of CV-1 cells are rinsed with PBS two times and 4.0 ml trypsin solution is added to 150 cm^2 tissue sulture flask. Cells are dispersed an 10×10^6 CV-1 cells in 40 ml of growth medium are added to new 150 cm^2 flasks. The number of cells added to a cell culture flask is proportional to the area. The cell culture is confluent in 5 to 7 days for use in the antiviral assay. […]
(§2) Discs are placed in wells containing cells, virus, and overlay medium. Plates are incubated at 37° C. for 48 hours, the second overlay medium is added at […] per well, and, after 24 hours additional incubation time, the plates are read. […]

[1] = system: combined murine splenocyte suspensions from BALB/c and C57BL/6J mice; experiment: Mixed lymphocyte reaction (MLR), 3H-thymidine incorporation; type: cell-based; conditions: percent of positive control (no drug)
Method: 1. Murine splenocyte suspensions were prepared separately from BALB/c and C57BL/6J mice. Spleens were aseptically removed and homogenized in RPMI-1640 tissue culture medium (TCM), supplemented with 10% fetal calf serum, 2% 1-glutamine, 15 mM HEPES, 1% antibiotic-antimycotic solution, and 25 μg/ml gentamicin (GIBCO). The cell concentrations were adjusted to 2.5 ×10^6 cells/ml. Aliquots of each cell population were removed to separate tubes, and the remaining two cell suspensions combined to one tube.
3. A volume of 0.2 ml of the combined splenocyte suspensions was added to triplicate test wells. Positive control wells received combined splenocyte suspensions in the absence of the test extracts/compounds. Negative control wells consisted of separate (not mixed) splenocyte suspensions cultured in the absence of the test compounds.
4. Plates were incubated in 5% CO2 at 37° C. for 86 hours.
5. A volume of 0.05 ml of ^3 H-thymidine (20 μCk/ml) was added to each well, and the plates were incubated in 5% CO2 at 37° C. for an additional 5 hours.
6. The contents of each well of the microtiter plates were harvested onto glass fiber filter strips, and the resulting filter discs placed in scintillation vials to which 2.0 ml of scintillation fluid was added.
7. The amount of incorporated ^3 H-thymidine was determined by counting the vials in a liquid scintillation counter.
8. Triplicate counts were averaged, and the data reported as a percentage of the positive control.

[2] = system: herpes simplex virus type 1 (HSV-1), Kos strain; experiment: HSV-1 plaque inhibition assay in CV-1 cells; type: cell-based; conditions: anti-HSV-1 activity
Excerpt: as §1
Twenty-four well plates (16 mm diameter per well) are seeded with 2×10^5 cells per well in 0.5 ml growth medium and incubated at 37°) C. with 5% CO2. The plates are used in 24 to 72 hours. Each well is infected with at least 25 but no more than 80 plaque forming units (PFU) of virus. Plates are incubated for 1.0 hours at 37° C. with 0.2 ml virus. […]
as §2

[3] = system: murine splenocytes from BALB/c mice (lymphoid cells); experiment: Lymphocyte viability assay (LCV), MTT; type: cell-based; conditions: percent of positive control (no drug)
Method: 1. Extra and compounds were similarly tested in parallel with the MLR to determine their toxic effects on lymphoid cells using the lymphocyte viability assay (LCV).
3. Murine splenocyte suspensions were prepared from BALB/c mice. Spleens were aseptically removed and homogenized in RPMI-1640 tissue culture medium (TCM), supplemented with 10% fetal calf serum, 2% 1-glutamine, 15 mM HEPES, 1% antibiotic-antimycotic solution, and 25 μg/ml gentamicin (GIBCO). The cell concentrations were adjusted to 2.5 ×10^6 cells/ml.
4. A volume of 0.2 ml of the splenocyte suspension was added to replicate test wells. Positive control wells received splenocyte suspensions in the absence of the test extracts/compounds.
5. Plates were incubated at 37° C. for 86 hours. At the end of the incubation period, a volume of 75 μl of a 2.0 mg/ml solution of MTT was added to each well, and the plates were returned to the incubator for an additional 5 hours.
6. The supernatants from each microwell were then removed, and a volume of 200 μl of isopropanol was added and the contents mixed.
7. Values were obtained by comparing the optical densities (determined at 570 and 650 nm) of wells containing the test compounds with those of wells containing cells and medium only (positive control). The results are expressed as a percentage of the positive control.
8. Replicate counts were averaged, and the data reported as a percentage of the positive control. An LCV value of less than 60% of the positive control is an indication of cytotoxicity of the test extracts/compounds for lymphoid cells.

[4] = system: murine P388 leukemia cells; experiment: Toxicity against murine P388 leukemia cells (MTT, 48 hour exposure); type: cell-based
Method: P388 cells obtained from J. Mayo, National Cancer Institute, Bethesda, Md., were maintained in Roswell Park Memorial Institute medium 1640 (RPMI-1640) supplemented with 10% horse serum. All cell lines were cultured in plastic tissue culture flasks and kept in an incubator at 37° C. in humidified air containing 5% CO2. Antibiotic-free stock cultures of P388 cells were subcultured to 10^5 cells/ml by dilution in fresh growth medium at 2-3 day intervals. The means generation time of primary cultures was 14-17 hours.
Solvent for all dilutions was methanol, which was removed from plates under vacuum. All experimental cultures were initiated in medium containing Gentamicin sulfate ([…]; Schering Corporation, Kenilworth, N.J.). […]
To quantitate the effects on cell proliferation, 75 μl of warm growth medium containing 5 mg/ml MTT was added to each well and cultures were returned to the incubator for 90 minutes. To spectophotometrically quantitate formation of reduced formazan, plates were centrifuged (900 xg, 5 minutes), culture fluids removed by aspiration, and 200 μl of acidified isopropanol (2 ml concentrated HCl/liter isopropanol) added per well. The absorbance of the resulting solutions were measured at 570 nm with a plate reader (MR700 Microplate Reader, Dynatech Laboratories, Chantilly, Va.). […]

Molecule | ID50 (CV-1 cells) [nanograms/ml] | % MLR Control ([1]; 2.5 ng/ml) [%] | % MLR Control ([1]; 5.0 ng/ml) [%] | % MLR Control ([1]; 10.0 ng/ml) [%] | % MLR Control ([1]; 20.0 ng/ml) [%] | % MLR Control ([1]; 40.0 ng/ml) [%] | % MLR Control ([1]; 80.0 ng/ml) [%] | % MLR Control ([1]; 160.0 ng/ml) [%] | % MLR Control ([1]; 312.5 ng/ml) [%] | % MLR Control ([1]; 625.0 ng/ml) [%] | % MLR Control ([1]; 1250.0 ng/ml) [%] | % MLR Control ([1]; 2500.0 ng/ml) [%] | % MLR Control ([1]; 5000.0 ng/ml) [%] | ED50 [2] [nanograms/ml] | % LCV Control ([3]; 2.5 ng/ml) [%] | % LCV Control ([3]; 5.0 ng/ml) [%] | % LCV Control ([3]; 10.0 ng/ml) [%] | % LCV Control ([3]; 20.0 ng/ml) [%] | % LCV Control ([3]; 40.0 ng/ml) [%] | % LCV Control ([3]; 80.0 ng/ml) [%] | further results
CCCC[C@@H](C)C[C@@H](C)C(=O)N(C)[C@@H](CC(C)C)C(=O)N[C@H](C(=O)N(C)[C@H](C(=O)N1C[C@@H](O)C[C@H]1C(=O)N1C(=O)C=C[C@@H]1C)C(C)C)[C@H](C)OC(C)=O [Microcolin A, microcolin A] | 480 | < 1 | < 1 | < 1 | < 1 | < 1 | < 1 | < 1 | < 1 | < 1 | < 1 | < 1 | < 1 | 2.5 | 78 | 71 | 80 | 82 | 60 | 59 | % LCV Control ([3]; 160.0 ng/ml): 59%; % LCV Control ([3]; 312.5 ng/ml): 48%; % LCV Control ([3]; 625.0 ng/ml): 52%; % LCV Control ([3]; 1250.0 ng/ml): 31%; % LCV Control ([3]; 2500.0 ng/ml): 18%; % LCV Control ([3]; 5000.0 ng/ml): 3%; IC50 [4]: 0.0009 mg/L (≈ 1.2 nM)
microcolin B | 1185 | 93 | 87 | 80 | 39 | 1 | < 1 | < 1 | < 1 | < 1 | < 1 | < 1 | < 1 | 146.0 | 78 | 121 | 107 | 105 | 97 | 114 | % LCV Control ([3]; 160.0 ng/ml): 99%; % LCV Control ([3]; 312.5 ng/ml): 110%; % LCV Control ([3]; 625.0 ng/ml): 88%; % LCV Control ([3]; 1250.0 ng/ml): 75%; % LCV Control ([3]; 2500.0 ng/ml): 51%; % LCV Control ([3]; 5000.0 ng/ml): 29%; IC50 [4]: 0.096 mg/L

Source: patent US5091368A, “Biologically active compounds from blue-green algae” (Harbor Branch Oceanographic Institution, Inc., priority 1990, dated 1992)
